According to PubChem BioAssay AID248 (DTP/NCI, 2004):
Inconclusive results and toxic doses are left out. Rule as the data show it: active = T/C of 150% or more; inactive = T/C below 125%.

System: L1210 leukemia ip in BDF1 mice, survival T/C
Test: NCI In Vivo Anticancer Drug Screen. Data for tumor model L1210 Leukemia (intraperitoneal) in B6D2F1 (BDF1) mice
Details: endpoint: mean survival time, higher = longer survival
How it was run: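 Ratio derived from survival: compound-dosed mice over vehicle-dosed mice, all bearing a transplantable tumor.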

[1] = dose: 100.0 mg/kg/injection, schedule: Q04DX003 (ip), vehicle: saline with Tween-80
[2] = dose: 200.0 mg/kg/injection, schedule: Q04DX003 (ip), vehicle: saline with Tween-80
[3] = dose: 400.0 mg/kg/injection, schedule: Q04DX003 (ip), vehicle: saline with Tween-80
[4] = dose: 100.0 mg/kg/injection, schedule: Q01DX001 (ip), vehicle: saline
[5] = dose: 100.0 mg/kg/injection, schedule: Q04DX003 (ip), vehicle: Klucel (hydroxypropylcellulose) (HPC)
[6] = dose: 200.0 mg/kg/injection, schedule: Q04DX003 (ip), vehicle: Klucel (hydroxypropylcellulose) (HPC)
[7] = dose: 200.0 mg/kg/injection, schedule: Q01DX009 (ip), vehicle: saline with Tween-80
[8] = dose: 100.0 mg/kg/injection, schedule: Q01DX009 (ip), vehicle: saline with Tween-80

Measured: T/C

O=C(O)c1cocc1C(=O)N1Cc2cc3ccccc3nc2C1
inactive: dose: 10.0 mg/kg/injection, schedule: Q04DX003 (ip), vehicle: saline 103 % of control | dose: 20.0 mg/kg/injection, schedule: Q04DX003 (ip), vehicle: saline 97 % of control | dose: 40.0 mg/kg/injection, schedule: Q04DX003 (ip), vehicle: saline 105 % of control | dose: 80.0 mg/kg/injection, schedule: Q04DX003 (ip), vehicle: saline 100 % of control | dose: 160.0 mg/kg/injection, schedule: Q04DX003 (ip), vehicle: saline 103 % of control

CC12CC(C(=O)c3ccccc3)C(C)(C1=O)C(c1ccccc1)=C2c1ccccc1 (stereo unspecified)
inactive: [1] 96 % of control | [2] 89 % of control | [3] 89 % of control

O=C(O)c1cc(C(=O)O)c(C(=O)O)cc1C(=O)O (tested in a mixture with another compound)
inactive: dose: 5.0 mg/kg/injection, schedule: Q01DX001 (ip), vehicle: saline 107 % of control | dose: 10.0 mg/kg/injection, schedule: Q01DX001 (ip), vehicle: saline 103 % of control | dose: 20.0 mg/kg/injection, schedule: Q01DX001 (ip), vehicle: saline 98 % of control | dose: 40.0 mg/kg/injection, schedule: Q01DX001 (ip), vehicle: saline 104 % of control | dose: 80.0 mg/kg/injection, schedule: Q01DX001 (ip), vehicle: saline 96 % of control | [4] 98 % of control

NC(CSS(=O)(=O)O)=NCc1ccccc1
inactive: dose: 12.5 mg/kg/injection, schedule: Q04DX002 (ip), vehicle: Klucel (hydroxypropylcellulose) (HPC) 114 % of control | dose: 25.0 mg/kg/injection, schedule: Q04DX002 (ip), vehicle: Klucel (hydroxypropylcellulose) (HPC) 101 % of control | dose: 50.0 mg/kg/injection, schedule: Q04DX002 (ip), vehicle: Klucel (hydroxypropylcellulose) (HPC) 97 % of control

O=C(N/N=C/c1ccccc1O)N/N=C/c1ccccc1O
inactive: dose: 50.0 mg/kg/injection, schedule: Q04DX003 (ip), vehicle: Klucel (hydroxypropylcellulose) (HPC) 96 % of control | [5] 90 % of control | [6] 88 % of control

CN(C)N=Nc1ccc([N+](=O)[O-])cc1Cl
inactive: [1] 101 % of control | dose: 134.0 mg/kg/injection, schedule: Q01DX009 (ip), vehicle: saline with Tween-80 113 % of control | [7] 115 % of control | [2] 105 % of control | [3] 112 % of control

c1ccc(N=N/C(=N/Nc2ccccc2)c2ccccc2)cc1
inactive: dose: 50.0 mg/kg/injection, schedule: Q01DX009 (ip), vehicle: saline with Tween-80 90 % of control | [8] 96 % of control

Cc1nccc2cc3c(cc12)c1ccccc1n3C
inactive: dose: 37.5 mg/kg/injection, schedule: Q04DX003 (ip), vehicle: Klucel (hydroxypropylcellulose) (HPC) 105 % of control | dose: 75.0 mg/kg/injection, schedule: Q04DX003 (ip), vehicle: Klucel (hydroxypropylcellulose) (HPC) 111 % of control | dose: 150.0 mg/kg/injection, schedule: Q04DX003 (ip), vehicle: Klucel (hydroxypropylcellulose) (HPC) 105 % of control | dose: 300.0 mg/kg/injection, schedule: Q04DX003 (ip), vehicle: Klucel (hydroxypropylcellulose) (HPC) 95 % of control

CS(=O)(=O)OC[C@@H](O)[C@@H](O)COS(C)(=O)=O
inactive: dose: 100.0 mg/kg/injection, schedule: Q01DX009 (ip), vehicle: saline sonified 101 % of control | dose: 200.0 mg/kg/injection, schedule: Q01DX009 (ip), vehicle: saline sonified 98 % of control | dose: 400.0 mg/kg/injection, schedule: Q01DX009 (ip), vehicle: saline sonified 103 % of control

c1ccc2cc(C3OCC4(CCCC4)CO3)ccc2c1
inactive: dose: 100.0 mg/kg/injection, schedule: Q04DX002 (ip), vehicle: Klucel (hydroxypropylcellulose) (HPC) 103 % of control | dose: 200.0 mg/kg/injection, schedule: Q04DX002 (ip), vehicle: Klucel (hydroxypropylcellulose) (HPC) 95 % of control | dose: 400.0 mg/kg/injection, schedule: Q04DX002 (ip), vehicle: Klucel (hydroxypropylcellulose) (HPC) 103 % of control

O=C(C/C(=N/O)c1ccccc1)c1ccccc1
inactive: dose: 50.0 mg/kg/injection, schedule: Q01DX001 (ip), vehicle: saline 98 % of control | [4] 102 % of control | dose: 200.0 mg/kg/injection, schedule: Q01DX001 (ip), vehicle: saline 96 % of control | dose: 400.0 mg/kg/injection, schedule: Q01DX001 (ip), vehicle: saline 90 % of control

COc1cccc(C2N(Cc3ccc(N(CCCl)CCCl)cc3C)CCCN2Cc2ccc(N(CCCl)CCCl)cc2C)c1O
inactive: dose: 50.0 mg/kg/injection, schedule: Q01DX001 (ip), vehicle: carboxymethylcellulose (CMC) 116 % of control | dose: 100.0 mg/kg/injection, schedule: Q01DX001 (ip), vehicle: carboxymethylcellulose (CMC) 120 % of control | dose: 200.0 mg/kg/injection, schedule: Q01DX001 (ip), vehicle: carboxymethylcellulose (CMC) 100 % of control

COc1ccc(NC(=O)Nc2cc(Cl)ccc2OC)cc1
inactive: dose: 12.5 mg/kg/injection, schedule: Q01DX009 (ip), vehicle: Klucel (hydroxypropylcellulose) (HPC) 90 % of control | dose: 25.0 mg/kg/injection, schedule: Q01DX009 (ip), vehicle: Klucel (hydroxypropylcellulose) (HPC) 93 % of control | dose: 50.0 mg/kg/injection, schedule: Q01DX009 (ip), vehicle: Klucel (hydroxypropylcellulose) (HPC) 93 % of control | [5] 99 % of control | [6] 92 % of control | dose: 400.0 mg/kg/injection, schedule: Q04DX003 (ip), vehicle: Klucel (hydroxypropylcellulose) (HPC) 90 % of control

CC(=O)O[C@@]1(C)C(=O)OCC2=CCN3CC[C@@H](OC(=O)[C@H](C)[C@]1(C)OC(C)=O)[C@@H]23
inactive: [4] 117 % of control

Cc1nnc(N)s1
inactive: dose: 100.0 mg/kg/injection, schedule: Q01DX001 (ip), vehicle: other 102 % of control | [8] 95 % of control | dose: 100.0 mg/kg/injection, schedule: Q04DX003 (ip), vehicle: other 104 % of control | dose: 200.0 mg/kg/injection, schedule: Q01DX001 (ip), vehicle: other 102 % of control | [7] 92 % of control | dose: 200.0 mg/kg/injection, schedule: Q04DX003 (ip), vehicle: other 95 % of control | dose: 400.0 mg/kg/injection, schedule: Q01DX001 (ip), vehicle: other 100 % of control | dose: 400.0 mg/kg/injection, schedule: Q01DX009 (ip), vehicle: saline with Tween-80 93 % of control | dose: 400.0 mg/kg/injection, schedule: Q04DX003 (ip), vehicle: other 98 % of control

C#CC1(NC(=O)NC(C)(C)C)CCCCC1
inactive: dose: 100.0 mg/kg/injection, schedule: Q04DX002 (ip), vehicle: saline with Tween-80 97 % of control | dose: 200.0 mg/kg/injection, schedule: Q04DX002 (ip), vehicle: saline with Tween-80 97 % of control | dose: 400.0 mg/kg/injection, schedule: Q04DX002 (ip), vehicle: saline with Tween-80 97 % of control

CC12CCC3c4ccc(OC(=O)Cc5ccc(N(CCCl)CCCl)cc5)cc4CCC3C1CCC2=O (stereo unspecified)
inactive: dose: 100.0 mg/kg/injection, schedule: Q01DX001 (sc), vehicle: steriod suspending solution 97 % of control | dose: 200.0 mg/kg/injection, schedule: Q01DX001 (sc), vehicle: steriod suspending solution 103 % of control | dose: 400.0 mg/kg/injection, schedule: Q01DX001 (sc), vehicle: steriod suspending solution 103 % of control
